In patent publication US8765786B2, “1-substituted indazole derivative” (Dainippon Sumitomo Pharma Co., Ltd., priority 2012, dated 2014):
Blank lines part the entries; values can stand above or below the compound they belong to.

Assays:
[1] = target: T1, hERG (human ether-a-go-go) potassium current (Homo sapiens, UniProt Q12809); experiment: hERG inhibition test (whole-cell patch clamp, QPatch HT, CHO cells); assay type: cell-based; conditions: room temperature
T1 construct: expressed in transfected cells; host or cells: CHO cells
T1 sequence (Q12809 whole entry): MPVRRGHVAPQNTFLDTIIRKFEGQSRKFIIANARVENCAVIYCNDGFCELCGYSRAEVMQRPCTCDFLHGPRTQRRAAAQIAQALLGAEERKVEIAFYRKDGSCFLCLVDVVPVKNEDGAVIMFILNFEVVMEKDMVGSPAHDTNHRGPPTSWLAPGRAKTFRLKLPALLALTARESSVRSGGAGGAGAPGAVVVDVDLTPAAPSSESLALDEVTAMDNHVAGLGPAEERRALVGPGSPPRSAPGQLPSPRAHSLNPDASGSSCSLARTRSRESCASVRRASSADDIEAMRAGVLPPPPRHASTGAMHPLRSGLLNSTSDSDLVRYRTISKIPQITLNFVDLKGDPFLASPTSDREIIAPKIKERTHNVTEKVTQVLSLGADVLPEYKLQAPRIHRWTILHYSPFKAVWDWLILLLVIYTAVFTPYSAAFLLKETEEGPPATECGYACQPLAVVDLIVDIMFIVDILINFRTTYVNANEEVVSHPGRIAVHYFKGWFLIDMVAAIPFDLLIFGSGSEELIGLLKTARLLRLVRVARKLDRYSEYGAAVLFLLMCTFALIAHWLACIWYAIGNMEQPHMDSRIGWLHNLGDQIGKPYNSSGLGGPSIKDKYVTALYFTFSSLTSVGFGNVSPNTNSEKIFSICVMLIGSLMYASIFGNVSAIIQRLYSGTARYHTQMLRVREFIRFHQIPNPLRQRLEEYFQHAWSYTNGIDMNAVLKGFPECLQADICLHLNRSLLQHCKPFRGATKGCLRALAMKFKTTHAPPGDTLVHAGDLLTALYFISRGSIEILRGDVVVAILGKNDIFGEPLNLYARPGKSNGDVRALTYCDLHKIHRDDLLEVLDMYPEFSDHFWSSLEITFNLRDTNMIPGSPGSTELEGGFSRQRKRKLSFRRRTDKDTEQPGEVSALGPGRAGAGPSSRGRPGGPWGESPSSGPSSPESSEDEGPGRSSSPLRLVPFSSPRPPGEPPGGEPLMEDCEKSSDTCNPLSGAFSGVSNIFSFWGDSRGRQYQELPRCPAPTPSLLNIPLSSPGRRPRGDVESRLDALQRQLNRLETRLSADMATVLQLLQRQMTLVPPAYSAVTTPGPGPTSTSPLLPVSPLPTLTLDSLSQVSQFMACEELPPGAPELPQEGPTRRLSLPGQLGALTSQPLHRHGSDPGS
Protocol: The hERG (human ether-a-go-go) potassium current in CHO cells which stably express hERG gene was recorded by whole-cell patch clamping technique using an automated patch clamp system, QPatch HT (Sophion Bioscience A/S). Inducing the hERG current, the membrane potential was held at −80 mV in voltage clamp mode, and then depolarized to −50 mV for 20 msec and then +20 mV for 5 sec. Then, the membrane potential was repolarized to −50 mV for 5 sec and the tail current amplitude was measured. The stimulation was given at a frequency of every 15 seconds, and the experiment was carried out at room temperature (22±2° C.) The compound was cumulatively administered to each cell in 4 concentrations, wherein the administration was done over 5 minutes in each concentration. The inhibition percentage of the inhibited current was calculated by comparing the current intensities before and after the compound was given in each concentration. According to Hill equation, each 50% inhibitory concentration was calculated (IC50 [μmol/L]). The test solutions used herein were as follows: extracellular solution (mmol/L): 2 CaCl2, 1 MgCl2, 10 HEPES, 4 KCl, 145 NaCl, 10 glucose,
intracellular solution (mmol/L): […], 1.8 MgCl2, 10 HEPES, 31 KOH, 10 EGTA, 120 KCl, 4 ATP

Rat PK test = assay type: in vivo; conditions: plasma, rats, intravenous and oral administration
Protocol: The present compound was administered intravenously in saline solution or orally in methylcellulose solution to 7 weeks old rats, and their blood was collected according to the following schedule:
(intravenous administration) 5 minutes, 15 minutes, 30 minutes, 1 hour, 2 hours, 4 hours, 6 hours and 24 hours after the administration
(oral administration) 15 minutes, 30 minutes, 1 hour, 2 hours, 4 hours, 6 hours and 24 hours after the administration
The collected blood was centrifuged at 3000 rpm for 10 minutes in a refrigerated centrifuge set at 4° C. The obtained plasma was measured with a HPLC to give a time curve of plasma level, thereby calculating the pharmacokinetic parameters.

[2] = Measurement of protein binding ratio (equilibrium dialysis); assay type: in vitro ADME, human
[3] = Measurement of brain penetration; assay type: in vivo; conditions: LC-MS/MS of plasma and brain homogenates; for Kp: read-out: concentration ratio of the brain to the plasma
Source text: The plasma and brain homogenates were deproteinized with methanol and then centrifuged. The supernatant was filtered, and the obtained sample was quantified with LC-MS/MS to calculate the concentration of the plasma and brain.

Slc: ddY mice = experiment: Novel object recognition test in mice (mORT); assay type: in vivo; conditions: for minimum effective dose: administered prior to 1st trial, 2nd trial 24 hours later; for efficacy at higher doses: dose of 0.3 mg/kg, 1.0 mg/kg or 3 mg/kg
Protocol: Slc: ddY mice (25 g to 30 g, male, Japan SLC) can be used in the novel object recognition test wherein the interval between the 1st trial (training) and the 2nd trial (test) correlates with the memory loss for the objects used in the 1st trial, and a significant memory-loss is observed when the 2nd trial is performed 24 hours after the 1st trial. According to the test mechanism, the present compounds were administered prior to the 1st trial, and the enhancement effect on memory in the 2nd trial was evaluated.

Slc: Wistar rats = experiment: Y-shaped maze test in rats, scopolamine-induced cognitive impairment; assay type: in vivo; conditions: 0.6 mg/kg scopolamine HBr s.c.
Protocol: In Y-maze test, 0.6 mg/kg scopolamine HBr (cat#S0929, Sigma Aldrich, Japan) can be subcutaneously administered to Slc: Wistar rats (280 g to 300 g, male, Japan SLC) to cause cognitive impairment and decrease the percentage of alternation behavior. According to the test mechanism, the present compounds were treated prior to the administration of scopolamine, and the improvement effect on cognitive impairment was evaluated.

human α7 nAChR = target: T2, human α7 nAChR (Homo sapiens, UniProt P36544); experiment: Evaluation of PAM activity with human α7 nACh receptor stably expressing cells (aequorin luminescence, FDSS7000); assay type: cell-based; conditions: test compound 10 μmol/L, ACh added at EC20, ratio of RLU (Max-Min) of test wells to control wells; for activity at 10 µM: read-out: α7PAM (%) @ 10 μmol/L
T2 construct: expressed in transfected cells; host or cells: GH4C1 cells derived from rat pituitary (ATCC CCL-82.2)
T2 sequence (P36544 23-502): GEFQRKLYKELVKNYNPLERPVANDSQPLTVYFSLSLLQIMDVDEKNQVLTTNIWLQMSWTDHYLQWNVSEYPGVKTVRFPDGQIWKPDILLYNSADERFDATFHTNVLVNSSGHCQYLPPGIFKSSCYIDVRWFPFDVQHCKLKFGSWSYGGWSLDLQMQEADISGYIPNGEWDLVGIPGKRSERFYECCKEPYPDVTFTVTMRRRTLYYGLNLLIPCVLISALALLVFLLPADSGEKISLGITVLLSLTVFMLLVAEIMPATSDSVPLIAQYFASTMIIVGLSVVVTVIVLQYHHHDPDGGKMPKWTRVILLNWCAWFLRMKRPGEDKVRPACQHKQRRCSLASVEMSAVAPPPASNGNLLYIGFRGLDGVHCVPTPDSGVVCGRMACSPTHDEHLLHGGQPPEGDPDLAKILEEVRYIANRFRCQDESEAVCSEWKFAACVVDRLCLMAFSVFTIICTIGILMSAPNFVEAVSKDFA
Procedure, shortened: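 Rat pituitary GH4C1 cells stably expressing human α7 nAChR and aequorin, loaded 4 h at room temperature with 4 μmol/L substrate, in Hanks/20 mM HEPES pH 7.4. After compound then ACh addition, 465 nm luminescence recorded 138 s; PAM activity is RLU (Max-Min) ratio to control wells.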

Structure (SMILES): CO[C@H]1CC[C@H](NC(=O)N2CCC(n3ncc4cc(C)ccc43)CC2)CC1 [Example 1, N-(trans-4-methoxycyclohexyl)-4-(5-methyl-1H-indazol-1-yl)piperidine-1-carboxamide]
- IC50 [1]: 84.3 µM
- bioavailability (Rat PK test): 41%
- protein binding ratio in the brain ([2]; brain): 91.9%
- protein binding ratio in the plasma ([2]; plasma): 84.7%
- Kp [3]: 1.27
- minimum effective dose (Slc: ddY mice): 0.1 mg/kg
- efficacy at higher doses (Slc: ddY mice): efficacy did not decrease
- dose from which cognitive function was significantly improved (Slc: Wistar rats): 0.3 mg/kg

Structure (SMILES): CCc1ccc2c(c1)c(OC(C)C)nn2C1CCN(C(=O)NC2CCOCC2)CC1 [Example 63, 4-(5-ethyl-3-isopropoxy-1H-indazol-1-yl)-N-(tetrahydro-2H-pyran-4-yl)piperidine-1-carboxamide]
- activity at 10 µM (human α7 nAChR): 358%
- IC50 [1]: > 10 µM
- dose at which efficacy was shown (Slc: ddY mice): 3 mg/kg
- dose from which a tendency to improve cognitive function was shown (Slc: Wistar rats): 0.3 mg/kg

Structure (SMILES): CCc1cccc2c1cnn2C1CCN(C(=O)N[C@H]2CC[C@H](OC)CC2)CC1 [Example 66, 4-(4-ethyl-1H-indazol-1-yl)-N-(trans-4-methoxycyclohexyl)piperidine-1-carboxamide]
- activity at 10 µM (human α7 nAChR): 466%
- dose at which efficacy was shown (Slc: ddY mice): 1 mg/kg

Structure (SMILES): CO[C@H]1CC[C@H](NC(=O)N2CCC(n3ncc4cc(C5CC5)ccc43)CC2)CC1 [Example 74, 4-(5-cyclopropyl-1H-indazol-1-yl)-N-(trans-4-methoxycyclohexyl)piperidine-1-carboxamide]
- IC50 [1]: 13.2 µM
- minimum effective dose (Slc: ddY mice): 0.1 mg/kg
- efficacy at higher doses (Slc: ddY mice): efficacy did not decrease
- dose from which cognitive function was significantly improved (Slc: Wistar rats): 0.3 mg/kg

Structure (SMILES): CO[C@H]1CC[C@H](NC(=O)N2CCC(n3ncc4cc(C(F)(F)F)ccc43)CC2)CC1 [Example 163, N-(trans-4-methoxycyclohexyl)-4-[5-(trifluoromethyl)-1H-indazol-1-yl]piperidine-1-carboxamide]
- activity at 10 µM (human α7 nAChR): 318%
- bioavailability (Rat PK test): 41%
- Kp [3]: 2.01

Structure (SMILES): O=C(NC1CCOCC1)N1CCC(n2ncc3cc(OC(F)(F)F)ccc32)CC1 [Example 227, N-(tetrahydro-2H-pyran-4-yl)-4-[5-(trifluoromethoxy)-1H-indazol-1-yl]piperidine-1-carboxamide]
- activity at 10 µM (human α7 nAChR): 768%
- bioavailability (Rat PK test): 69%
- Kp [3]: 1.92

Structure (SMILES): COc1nn(C2CCN(C(=O)NC3CCCCC3)CC2)c2ccc(C)cc12 [Example 258]
- α7PAM (%) @ 10 μmol/L (human α7 nAChR): 941%
- IC50 [1]: 47.3 µM
- concentration ratio of the brain to the plasma [3]: 1.55

Structure (SMILES): [2H]C([2H])([2H])O[C@H]1CC[C@H](NC(=O)N2CCC(n3ncc4c(CC)cccc43)CC2)CC1 [Example 307]
- α7PAM (%) @ 10 μmol/L (human α7 nAChR): 464%

Structure (SMILES): [2H]C([2H])([2H])O[C@H]1CC[C@H](NC(=O)N2CCC(n3ncc4cc(C([2H])([2H])[2H])ccc43)CC2)CC1 [Example 308]
- α7PAM (%) @ 10 μmol/L (human α7 nAChR): 1021%

Structure (SMILES): [2H]C([2H])([2H])Oc1nn(C2CCN(C(=O)NC3CCOCC3)CC2)c2ccc(C(F)(F)F)cc12 [Example 309]
- α7PAM (%) @ 10 μmol/L (human α7 nAChR): 406%

Structure (SMILES): [2H]C([2H])([2H])Oc1nn(C2CCN(C(=O)NC3CCC(F)(F)CC3)CC2)c2ccc(C(F)(F)F)cc12 [Example 310]
- α7PAM (%) @ 10 μmol/L (human α7 nAChR): 134%

Structure (SMILES): [2H]C([2H])([2H])c1ccc2c(cnn2C2CCN(C(=O)NC3CCC(F)(F)CC3)CC2)c1 [Example 311]
- α7PAM (%) @ 10 μmol/L (human α7 nAChR): 1393%

Next, values leading:

- α7PAM (%) @ 10 μmol/L (human α7 nAChR): 949%
Structure (SMILES): [2H]C([2H])([2H])c1ccc2c(cnn2C2CCN(C(=O)NC3CCC(OCC)CC3)CC2)c1 (stereo not shown) [Example 314]

- α7PAM (%) @ 10 μmol/L (human α7 nAChR): 825%
Structure (SMILES): [2H]C([2H])([2H])c1ccc2c(cnn2C2CCN(C(=O)NC3CCCC3)CC2)c1 [Example 315]

- α7PAM (%) @ 10 μmol/L (human α7 nAChR): 807%
Structure (SMILES): [2H]C([2H])([2H])O[C@H]1CC[C@H](NC(=O)N2CCC(n3nc(C4CCOCC4)c4cc(C)ccc43)CC2)CC1 [Example 316]

- α7PAM (%) @ 10 μmol/L (human α7 nAChR): 360%
Structure (SMILES): COc1c(C(F)(F)F)ccc2c1cnn2C1CCN(C(=O)NC2CCC(OC)CC2)CC1 (stereo not shown) [Example 317]

- α7PAM (%) @ 10 μmol/L (human α7 nAChR): 1084%
Structure (SMILES): [2H]C([2H])([2H])O[C@H]1CC[C@H](NC(=O)N2CCC(n3ncc4c(OC)c(CC)ccc43)CC2)CC1 [Example 318]

- α7PAM (%) @ 10 μmol/L (human α7 nAChR): 1337%
Structure (SMILES): [2H]C([2H])([2H])Oc1ccc2c(cnn2C2CCN(C(=O)NC3CCC(F)(F)CC3)CC2)c1 [Example 319]

- α7PAM (%) @ 10 μmol/L (human α7 nAChR): 639%
Structure (SMILES): [2H]C([2H])([2H])O[C@H]1CC[C@H](NC(=O)N2CCC(n3ncc4cc(OC5CC5)ccc43)CC2)CC1 [Example 322]

- α7PAM (%) @ 10 μmol/L (human α7 nAChR): 886%
Structure (SMILES): [2H]C([2H])([2H])Oc1c(C2CC2)ccc2c1cnn2C1CCN(C(=O)NC2CCOCC2)CC1 [Example 323]

- α7PAM (%) @ 10 μmol/L (human α7 nAChR): 1352%
Structure (SMILES): [2H]C([2H])([2H])Oc1ccc2c(cnn2C2CCN(C(=O)NC3CCCCC3)CC2)c1 [Example 324]

- α7PAM (%) @ 10 μmol/L (human α7 nAChR): 997%
Structure (SMILES): [2H]C([2H])([2H])O[C@H]1CC[C@H](NC(=O)N2CCC(n3ncc4cc(CC)ccc43)CC2)CC1 [Example 325]

- α7PAM (%) @ 10 μmol/L (human α7 nAChR): 1251%
Structure (SMILES): [2H]C([2H])([2H])O[C@H]1CC[C@H](NC(=O)N2CCC(n3ncc4cc(OC(F)F)ccc43)CC2)CC1 [Example 326]
